This note sets out measurements from PubChem BioAssay (NCI).

Some test systems named below: HL-60(TB) leukemia; UO-31 renal; HT29 colon; TK-10 renal; SNB-19 CNS; CCRF-CEM leukemia; OVCAR-4 ovarian; OVCAR-8 ovarian; MALME-3M melanoma; MDA-MB-231 breast; COLO 205 colon; MOLT-4 leukemia; U251 CNS; SN12C renal; NCI-H522 lung; K-562 leukemia; IGROV1 ovarian; MDA-MB-435.
Holding throughout (assay): inhibition of tumour cell growth, NCI panel, 48 h

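Cultured in 96-well plates, cells were exposed to test compound for 48 hours across five concentrations. Here, GI50 denotes the concentration required for 50% inhibition of growth. TGI denotes the concentration required for complete inhibition of growth.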

Regarding `O=c1cc(-c2ccccc2)[nH]c2cc3c(cc12)OCO3`, the TGI was 53 µM in the experiment on HL-60(TB) leukemia; greater than 100 µM in the experiment on UO-31 renal; greater than 46.4 µM in the experiment on HT29 colon; greater than 94 µM in the experiment on TK-10 renal; greater than 100 µM with SNB-19 CNS; greater than 100 µM in the experiment with CCRF-CEM leukemia. Besides, the TGI in the experiment with OVCAR-4 ovarian is greater than 100 µM; in the experiment with OVCAR-8 ovarian, greater than 100 µM; with MALME-3M melanoma, greater than 82.9 µM; in the experiment with MDA-MB-231 breast, greater than 100 µM; in the experiment on COLO 205 colon, 65.7 µM; in the experiment on MOLT-4 leukemia, greater than 100 µM. Further, the TGI in the experiment on U251 CNS was greater than 82.3 µM; in the experiment with SN12C renal, greater than 100 µM; in the experiment on NCI-H522 lung it was 13.4 µM; with K-562 leukemia, greater than 100 µM; in the experiment on IGROV1 ovarian, greater than 100 µM.

`COc1ccc2c(c1)CCc1c-2[nH]c2ccc(OC)cc12`: the TGI is greater than 100 µM in the experiment with UO-31 renal; greater than 100 µM with HT29 colon; greater than 100 µM in the experiment on TK-10 renal; greater than 100 µM with SNB-19 CNS; 97.7 µM in the experiment with CCRF-CEM leukemia; greater than 100 µM in the experiment with OVCAR-4 ovarian. Further, the TGI with OVCAR-8 ovarian, with MALME-3M melanoma, in the experiment on MDA-MB-231 breast, in the experiment with COLO 205 colon, in the experiment with MOLT-4 leukemia and in the experiment on U251 CNS was greater than 100 µM each time. Also, the TGI with SN12C renal, in the experiment on MDA-MB-435, in the experiment with NCI-H522 lung, in the experiment on K-562 leukemia and in the experiment with IGROV1 ovarian was greater than 100 µM in each case.

Turning to `O=C(O)c1ccc(NNc2cc(=O)[nH]c(=O)[nH]2)cc1`, the TGI in the experiment with HL-60(TB) leukemia, in the experiment on UO-31 renal, in the experiment on HT29 colon, with TK-10 renal, with SNB-19 CNS and with CCRF-CEM leukemia was greater than 100 µM in each case. Also, the TGI in the experiment with OVCAR-4 ovarian, in the experiment with OVCAR-8 ovarian, in the experiment on MALME-3M melanoma, with MDA-MB-231 breast, in the experiment with COLO 205 colon and in the experiment on MOLT-4 leukemia was greater than 100 µM each time. Besides, the TGI with U251 CNS, in the experiment with SN12C renal, with K-562 leukemia and in the experiment on IGROV1 ovarian was greater than 100 µM in each case.

For the compound `CCOC(=O)C1=C(Nc2cccc(OC)c2)OCC1=O`, the TGI with HL-60(TB) leukemia, in the experiment on UO-31 renal, with HT29 colon, with TK-10 renal, in the experiment with SNB-19 CNS and in the experiment with CCRF-CEM leukemia was greater than 100 µM in each case. The TGI with OVCAR-4 ovarian, with OVCAR-8 ovarian, in the experiment on MDA-MB-231 breast, in the experiment with COLO 205 colon, in the experiment on MOLT-4 leukemia and in the experiment on U251 CNS was greater than 100 µM throughout. The TGI with MDA-MB-435, in the experiment with K-562 leukemia and in the experiment on IGROV1 ovarian was greater than 100 µM throughout.

For `COc1ccc2c(c1)CC[C@@H]1[C@@H]2CC[C@]2(C)C(=O)/C(=C/c3ccc(OC)c(OC)c3)C[C@@H]12`, the TGI in the experiment on HL-60(TB) leukemia, in the experiment on UO-31 renal, in the experiment with TK-10 renal, in the experiment with SNB-19 CNS, with OVCAR-4 ovarian and with MALME-3M melanoma was greater than 100 µM throughout. Also, the TGI in the experiment on MDA-MB-231 breast, with MOLT-4 leukemia, in the experiment on U251 CNS and in the experiment with MDA-MB-435 was greater than 100 µM throughout.

On to `COc1ccc2c(c1)CN1C(=N2)CSC1c1cc([N+](=O)[O-])ccc1Cl` (centres undefined), for which the TGI in the experiment on HL-60(TB) leukemia is 45.8 µM; with UO-31 renal, greater than 100 µM; in the experiment on HT29 colon, 75.8 µM; in the experiment with TK-10 renal, greater than 100 µM; with SNB-19 CNS it was greater than 100 µM; in the experiment with OVCAR-4 ovarian, greater than 100 µM. Besides, the TGI was greater than 100 µM in the experiment with OVCAR-8 ovarian; greater than 100 µM in the experiment on MALME-3M melanoma; greater than 100 µM in the experiment on MDA-MB-231 breast; 92.4 µM with COLO 205 colon; greater than 100 µM in the experiment on MOLT-4 leukemia; greater than 100 µM in the experiment on U251 CNS. Moreover, the TGI in the experiment on SN12C renal, in the experiment with MDA-MB-435, in the experiment on NCI-H522 lung, with K-562 leukemia and in the experiment on IGROV1 ovarian was greater than 100 µM in each case.

For the compound `NS(=O)(=O)c1ccc(-n2c(-c3cccs3)nc3ccc(I)cc3c2=O)cc1`, the TGI with HL-60(TB) leukemia is 64.4 µM; in the experiment with UO-31 renal, 42.6 µM; with HT29 colon, 94.1 µM; in the experiment with TK-10 renal it was 50.8 µM; in the experiment with SNB-19 CNS it was 70.6 µM; with CCRF-CEM leukemia, greater than 100 µM. Also, the TGI in the experiment with OVCAR-4 ovarian was 86.3 µM; with OVCAR-8 ovarian, greater than 100 µM; in the experiment on MALME-3M melanoma, 43.2 µM; in the experiment with COLO 205 colon, 40.3 µM; in the experiment on MOLT-4 leukemia, greater than 100 µM; in the experiment on U251 CNS it was 48.8 µM. For the same compound, the TGI with SN12C renal is 98.9 µM; in the experiment on MDA-MB-435, 42.4 µM; with NCI-H522 lung, 39.1 µM; in the experiment with K-562 leukemia, greater than 100 µM; in the experiment with IGROV1 ovarian it was 56 µM. Also, the GI50 was 41.2 µM in the experiment with CCRF-CEM leukemia and 37.2 µM in the experiment with K-562 leukemia.

Take `Cc1cn(C2CC(ON3C(=O)c4ccccc4C3=O)C(CO)O2)c(=O)[nH]c1=O` (centres undefined): the TGI in the experiment with HL-60(TB) leukemia, in the experiment on UO-31 renal, in the experiment with HT29 colon, in the experiment with TK-10 renal, with SNB-19 CNS and with CCRF-CEM leukemia was greater than 10 µM throughout. Further, the TGI in the experiment on OVCAR-4 ovarian, in the experiment on OVCAR-8 ovarian, in the experiment on MALME-3M melanoma, in the experiment on MOLT-4 leukemia, in the experiment with U251 CNS and in the experiment on SN12C renal was greater than 10 µM throughout. Besides, the TGI in the experiment with MDA-MB-435, with NCI-H522 lung, in the experiment on K-562 leukemia and in the experiment on IGROV1 ovarian was greater than 10 µM in each case.

Consider `Clc1ccc(Cl)c(Nc2ccnc(SCc3ccccc3)n2)c1`, for which the TGI in the experiment with UO-31 renal, with HT29 colon, with TK-10 renal, in the experiment on SNB-19 CNS, in the experiment with CCRF-CEM leukemia and in the experiment on OVCAR-4 ovarian was greater than 100 µM each time. The TGI in the experiment on OVCAR-8 ovarian, in the experiment with MALME-3M melanoma, with MDA-MB-231 breast, in the experiment with COLO 205 colon, with MOLT-4 leukemia and in the experiment on U251 CNS was greater than 100 µM throughout. For the same compound, the TGI with SN12C renal, in the experiment on MDA-MB-435, in the experiment with NCI-H522 lung, with K-562 leukemia and in the experiment on IGROV1 ovarian was greater than 100 µM throughout.
